Values after ≈ are worked out from the molar mass of the structure shown. Read-outs that look alike come from different tables or passages of the source.
How the values were obtained:
[1] = system: Streptococcus pneumoniae, A9585; experiment: In vitro antibacterial activity (MIC), serial 2-fold dilution; format: cell-based; conditions: read-out: Antibacterial Activity MIC S. pn.
Protocol: (§1) In vitro antibacterial activity was determined by serial 2-fold dilution of the compound in Mueller-Hinton agar and inoculation of the agar surface or broth with an appropriately diluted 18-24 h broth culture.

Escherichia coli, A15119 = experiment: as above; format: cell-based; conditions: read-out: Antibacterial Activity MIC E. coli
Protocol: as §1

[2] = system: Pseudomonas aeruginosa, A9843; experiment: as above; format: cell-based; conditions: read-out: Antibacterial Activity MIC P. aer.
Protocol: as §1

[3] = Chemical stability in aqueous solution (half-life); format: physicochemical; conditions: 37°C, 10^-4 M, pH 7.4, aqueous solution; read-out: Half-life (T 1/2) (converted)
Protocol: These values were determined by the method of Woodward et al, J. Am. Chem. Soc., 102, 2042 (1980)

[4] = Streptococcus pneumoniae A9585, Mueller-Hinton, 37°C, 17 h
[5] = Escherichia coli A15119, Mueller-Hinton, 37°C, 17 h
[6] = Pseudomonas aeruginosa A9843, Mueller-Hinton, 37°C, 17 h

Structure (SMILES) | MIC [1, 4] | MIC (Escherichia coli, A15119; [5]) | MIC [2, 6] | half-life at 100 µM [3] | MIC ([1]; Streptococcus pneumoniae, A9585, 17 h) | MIC (Escherichia coli, A15119; Escherichia coli, A15119, 17 h) | MIC ([2]; Pseudomonas aeruginosa, A9843, 17 h)
C[C@@H](O)[C@H]1C(=O)N2C(C(=O)O)=C(SCc3ccccn3)[C@H](CCN)[C@H]12 [Example 3, (4R,5S,6S)-4-(2"-Aminoethyl)-6-[(1'R)-1'-hydroxyethyl]-3-[(pyridin-2-yl)methylthio]-7-oxo-1-azabicyclo-[3.2.0]-hept-2-ene-2-carboxylic acid] | 0.13 µg/mL (≈ 0.358 µM) | 0.016 µg/mL (≈ 0.044 µM) | 2 µg/mL (≈ 5.5 µM) | 3.2 h | – | – | –
C[C@@H](O)[C@H]1C(=O)N2C(C(=O)O)=C(SCCC#N)[C@H](CCCCNC=N)[C@H]12 [Example 19, (4R,5S,6S)-3-[(2-Cyanoethyl)thio]-4-[4"-(N-formimidoyl)-amino-butyl]-6-[(1'R)-1'-hydroxyethyl]-7-oxo-1 - azabicyclo-[3.2.0]hept-2-ene-2-carboxylic acid] | 0.06 µg/mL (≈ 0.158 µM) | 0.004 µg/mL (≈ 0.0105 µM) | 1 µg/mL (≈ 2.63 µM) | 117 h | – | – | –
C[C@@H](O)[C@H]1C(=O)N2C(C(=O)O)=C(SCc3cccnc3)[C@H](CCN)[C@H]12 [Example 24, (4R,5S,6S)-4-(2"-Aminoethyl)-6-[(1'R)-1'-hydroxyethyl]-3-[(pyridin-3-yl)methyithio]-7-oxo-1-azabicyclo[3.2.0]-hept-2-ene-2-carboxylic acid] | 0.13 µg/mL (≈ 0.358 µM) | 0.016 µg/mL (≈ 0.044 µM) | 1 µg/mL (≈ 2.75 µM) | 3.5 h | – | – | –
C[C@@H](O)[C@H]1C(=O)N2C(C(=O)O)=C(SCCCC#N)[C@H](CCN)[C@H]12 [Example 47, (4R,5S,6S)-4-(2"-Aminoethyl)-3-[(3-cyanopropyl)thio]-6-[(1'R)-l'-hydroxyethyl]-7-oxo-1-azabicyclo[3.2.0]hept-2-ene-2-carboxylic acid] | 0.5 µg/mL (≈ 1.47 µM) | 0.03 µg/mL (≈ 0.0884 µM) | 1 µg/mL (≈ 2.95 µM) | 2.5 h | – | – | –
C[C@@H](O)[C@H]1C(=O)N2C(C(=O)O)=C(SCCC#N)[C@H](CCN3CCOCC3)[C@H]12 [Example 49, (4R,5S,6S)-3-[(2-Cyanoethyl)thio]-6-[(1'R)-1'-hydroxyethyl]--4-[2"-(N-morpholino)ethyl]-7-oxo-1-azabicyclo-[3.2.0]hept-2-ene-2-carboxylic acid] | 0.008 µg/mL (≈ 0.0202 µM) | 0.03 µg/mL (≈ 0.0759 µM) | 63 µg/mL (≈ 159 µM) | 33.5 h | – | – | –
C[C@@H](O)[C@H]1C(=O)N2C(C(=O)O)=C(SCCC#N)[C@H](CCNC(=N)N)[C@H]12 [Example 73, (4R,5S,6S)-3-[(2-Cyanoethyl)thio]-4-(2"-guanidinoethyl)-6-[(1'R)-1'-hydroxyethyl]-7-oxo-1-azabicyclo[3.2.0]-hept-2-ene-2-carboxylic acid] | 0.03 µg/mL (≈ 0.0816 µM) | 0.008 µg/mL (≈ 0.0218 µM) | 0.25 µg/mL (≈ 0.68 µM) | 37 h | – | – | –
CSC1=C(C(=O)O)N2C(=O)[C@H]([C@@H](C)O)[C@H]2[C@H]1CCCCN [Example 92, (4R,5S,6S)-4-(4"-Aminobutyl)-6-(1'R)-1'-hydroxyethyl-3-methylthio-7-oxo-1-azabicyclo[3.2.0]hept-2-ene-2-carboxylic acid] | 2 µg/mL (≈ 6.36 µM) | 0.06 µg/mL (≈ 0.191 µM) | 2 µg/mL (≈ 6.36 µM) | 247 h | – | – | –
C[C@H](N)C(=O)N[C@@H](C)C(=O)NCC[C@H]1C(SCCC#N)=C(C(=O)O)N2C(=O)[C@H]([C@@H](C)O)[C@@H]12 [Example 146, (4R,5S,6S)-6-[(1'R)-1'-Hydroxyethyl]-3-[(2-cyanoethyl)-thio]-4-[2"-(L-alanyl-L-alanyl)-aminoethyl]-7-oxo-1-azabicyclo-[3.2.0]hept-2-ene-2-carboxylic acid] | 0.25 µg/mL (≈ 0.535 µM) | 0.125 µg/mL (≈ 0.267 µM) | 128 µg/mL (≈ 274 µM) | – | – | – | –
C[C@@H](O)[C@H]1C(=O)N2C(C(=O)O)=C(SCCN=CN)C[C@H]12 [Imipenem, imipenem, reference compound] | – | – | – | – | 0.002 µg/mL (≈ 0.00668 µM) | 0.03 µg/mL (≈ 0.1 µM) | 2 µg/mL (≈ 6.68 µM)

More lines, main results first:

MIC [1, 4] | MIC (Escherichia coli, A15119; [5]) | MIC [2, 6] | half-life at 100 µM [3] | Structure (SMILES) | MIC ([1]; Streptococcus pneumoniae, A9585, 17 h) | MIC (Escherichia coli, A15119; Escherichia coli, A15119, 17 h) | MIC ([2]; Pseudomonas aeruginosa, A9843, 17 h)
0.25 µg/mL (≈ 0.699 µM) | 0.004 µg/mL (≈ 0.0112 µM) | 0.25 µg/mL (≈ 0.699 µM) | 76 h | C[C@@H](O)[C@H]1C(=O)N2C(C(=O)O)=C(SCCO)[C@H](CCCNC=N)[C@H]12 [Example 32, (4R,5S,6S)-4-[3"-[N-Formimidoyl)aminopropyl]-6-[(1'R)-1'-hydroxyethyl]-3-[(2-hydroxyethyl)thio]-7-oxo-1-azabicyclo [3.2.0]hept-2-ene-2-carboxylic acid] | – | – | –
0.13 µg/mL (≈ 0.4 µM) | 0.008 µg/mL (≈ 0.0246 µM) | 0.25 µg/mL (≈ 0.768 µM) | 3.8 h | C[C@@H](O)[C@H]1C(=O)N2C(C(=O)O)=C(SCCC#N)[C@H](CCN)[C@H]12 [Example 36, (4R,5S,6S)-4-(2"-Aminoethyl)-3-[(2-cyanoethyl)thio]-6-[(1'R)-1'-hydroxyethyl]-7-oxo-1-azabicyclo[3.2.0]hept-2-ene-2-carboxylic acid] | – | – | –
0.06 µg/mL (≈ 0.145 µM) | 0.008 µg/mL (≈ 0.0194 µM) | 1 µg/mL (≈ 2.42 µM) | 32.5 h | C[C@@H](O)[C@H]1C(=O)N2C(C(=O)O)=C(SCc3csnn3)[C@H](CCNC(=N)N)[C@H]12 [Example 40, (4R,5S.6S)-4-(2"-Guanidinoethyl)-6-[(1'R)-1'-hydroxyethyl]-3-[(1,2.3-thiadiazol-4-yl)methyithio]-7-oxo-1-azabicyclo-[3.2.0]hept-2-ene-2-carboxylic acid] | – | – | –
0.25 µg/mL (≈ 0.737 µM) | 0.008 µg/mL (≈ 0.0236 µM) | 0.5 µg/mL (≈ 1.47 µM) | 70 h | C[C@@H](O)[C@H]1C(=O)N2C(C(=O)O)=C(SCCC#N)[C@H](CCCN)[C@H]12 [Example 41, (4R-5S,6S)-4-(3"-Aminopropyl)-3-[(2-cyanoethy!)thio]-6-[(1'R)-1'-hydroxyethyl]-7-oxo-1-azabicyclo[3.2.0]hept-2-ene-2-carboxylic acid] | – | – | –
0.03 µg/mL (≈ 0.0795 µM) | 0.03 µg/mL (≈ 0.0795 µM) | 8 µg/mL (≈ 21.2 µM) | 89 h | C[C@@H](O)[C@H]1C(=O)N2C(C(=O)O)=C(SCc3ccncc3)[C@H](CCCN)[C@H]12 [Example 44] | – | – | –
0.008 µg/mL (≈ 0.0211 µM) | 0.016 µg/mL (≈ 0.0422 µM) | 1 µg/mL (≈ 2.64 µM) | 18 h | C[C@@H](O)[C@H]1C(=O)N2C(C(=O)O)=C(SCCC#N)[C@H](CCN3CCCC3)[C@H]12 [Example 63, (4R,5S,6S)-3-[(2-cyanoethyl)thio]-6-[(1'R)-1'-hydroxyethyl]-4-[2"-(1-pyrrolidinyl)-ethyl]-7-oxo-1-azabicyclo[3.2.0]hept-2-ene-2-carboxylic acid] | – | – | –
0.5 µg/mL (≈ 1.34 µM) | 0.016 µg/mL (≈ 0.043 µM) | 4 µg/mL (≈ 10.7 µM) | 150 h | C[C@@H](O)[C@H]1C(=O)N2C(C(=O)O)=C(SCCO)[C@H](CCCCN(C)C)[C@H]12 [Example 91, (4R,5S,6S)-4-(4"-N,N-Dimethylaminobutyl)-6-[(1'R)-1'-hydroxyethyl]-3-[(2-hydroxyethyl)thio]-7-oxo-1-azabicyclo-[3.2.0]hept-2-ene-2-carboxylic acid] | – | – | –
0.06 µg/mL (≈ 0.147 µM) | 0.008 µg/mL (≈ 0.0196 µM) | 8 µg/mL (≈ 19.6 µM) | 88 h | C[C@@H](O)[C@H]1C(=O)N2C(C(=O)O)=C(SCc3cn(C)nn3)[C@H](CCCNC=N)[C@H]12 [Example 94, (4R.5S,6S)-4-[3"-(N-Formimidoyi)aminopropyi]-6-[(1'R)-1'-hydroxyethyl]-3-[(1-methyl-1,2,3-triazol-4-yl)-methylthio]-7-oxo-1-azabicyclo[3.2.0]hept-ene-2-carboxylic acid] | – | – | –
0.125 µg/mL (≈ 0.315 µM) | 0.125 µg/mL (≈ 0.315 µM) | 8 µg/mL (≈ 20.2 µM) | – | C[C@H](N)C(=O)NCC[C@H]1C(SCCC#N)=C(C(=O)O)N2C(=O)[C@H]([C@@H](C)O)[C@@H]12 [Example 145, (4R,5S,6S)-6-[(\1'R)-1'-Hydroxyethyl]-3-[(2-cyanoethyl)-thio]-4-[2"-(L-alanyl)-aminoethyl]-7-oxo-1-azabicyclo-[3.2.0]hept-2-ene-2-carboxylic acid] | – | – | –

From EP0433759A1, “4-Substituted alkyl carbapenem antibiotics” (Bristol-Myers Squibb Company, priority 1989, dated 1991)
